# Read-outs that look alike come from different tables or passages of the source.
# Key:
# [1] = test system: tumor-associated macrophages (TAMs); design: method as in Zhou et al. [2017]; conditions: preclinical studies; ref Zhou et al. [2017]; cited from earlier work
# [2] = Phase 1 trial: pharmacokinetics of surufatinib and toripalimab (non-compartmental analysis); assay type: in vivo, human; conditions: for Surufatinib accumulation ratio of AUC0-τ: Cycle 2 Day 1 compared to Cycle 1 Day 1; for AUC / Cmax / Tmax / Vd/F / half-life: human, in vivo, oral; for AUC: read-out: Surufatinib AUC0-τ, geometric mean (CV%); for Cmax: read-out: Surufatinib Cmax, geometric mean (CV%); for Tmax: read-out: Surufatinib Tmax, median; for Vd/F: read-out: Surufatinib Vd/F, geometric mean (CV%); for half-life: read-out: Surufatinib t1/2, median (converted)
# Text: Blood samples were collected for PK evaluation at multiple time points on Cycle 1 Day 1, Cycle 2 Day 1, and Cycle 3 Day 1 for surufatinib and toripalimab, respectively.
# DLT events were based on the DLT evaluable population, including patients who received at least 1 cycle of treatment and completed all safety assessments within the DLT assessment window or discontinued early due to DLT in the dose-escalation stage. All safety analyses, progression-free survival (PFS), and overall survival (OS) statistics were based on the safety population, including patients who received at least 1 dose of any study drug. All efficacy endpoints, excluding PFS and OS, were analyzed based on the efficacy evaluable population, including all patients who received at least 1 dose of any study drug and had tumor assessment at baseline and post drug administration prior to initiation of new anti-cancer therapies. The PK analysis was based on the PK population, which included all patients who received at least one dose of the study drug, had at least one PK sample collected and analyzed, and had no protocol deviation that might affect the PK data.
# Two-sided 95% confidence interval (CI) of ORR and DCR were computed using the Exact (Clopper–Pearson) method. For time-to-event variables [PFS, OS, DoR (duration of response) and TTR (time to response)], median event time as well as the corresponding 95% CI were estimated using Kaplan–Meier method. All statistical analyses were performed using SAS 9.4 software. Adverse events (AEs) were graded by NCI CTCAE (Common Terminology Criteria for Adverse Events) v4.03, and coded using the Medical Dictionary for Regulatory Activities (MedDRA) v23.1. Treatment-related AEs (TRAEs) referred to AEs related to surufatinib or toripalimab, which were judged by the investigators. PK parameters were calculated by non-compartmental analysis using Phoenix WinNonlin v8.0.
# [3] = test system: advanced well-differentiated extrapancreatic NET; design: method as in Xu et al. [2020a], [b]; conditions: phase 3 trial, ref Xu et al. [2020a], [b]; cited from earlier work
# [4] = test system: advanced well-differentiated pancreatic NET; design: method as in Xu et al. [2020a], [b]; conditions: phase 3 trial, ref Xu et al. [2020a], [b]; cited from earlier work
# [5] = surufatinib 200 mg + toripalimab 240 mg, C1D1, N 6
# [6] = surufatinib 200 mg + toripalimab 240 mg, C1D1, footnote 1 (N 4)
# [7] = surufatinib 200 mg + toripalimab 240 mg, C2D1, N 6
# [8] = surufatinib 200 mg + toripalimab 240 mg, C3D1, N 3
# [9] = surufatinib 200 mg + toripalimab 240 mg, C3D1, footnote 3 (N 2)
# [10] = surufatinib 250 mg + toripalimab 240 mg, C1D1, N 12
# [11] = surufatinib 250 mg + toripalimab 240 mg, C2D1, N 11
# [12] = surufatinib 250 mg + toripalimab 240 mg, C3D1, N 9
# [13] = surufatinib 250 mg + toripalimab 240 mg, C3D1, footnote 3 (N 8)
# [14] = surufatinib 300 mg + toripalimab 240 mg, C1D1, N 12
# [15] = surufatinib 300 mg + toripalimab 240 mg, C1D1, footnote 1 (N 10)
# [16] = surufatinib 300 mg + toripalimab 240 mg, C2D1, N 10
# [17] = surufatinib 300 mg + toripalimab 240 mg, C3D1, N 10
compound,measurement,setting,value
Cc1cc2cc(Oc3ccnc(Nc4cccc(CS(=O)(=O)NCCN(C)C)c4)n3)ccc2[nH]1 [surufatinib],Effect on M1 TAMs,[1],increased
same,Effect on M2 tumor-associated macrophages (TAMs),[1],decreased
same,Surufatinib accumulation ratio of AUC0-τ,[2]; 200 mg QD,1.8
same,Surufatinib accumulation ratio of AUC0-τ,[2]; 250 mg QD,2.0
same,Surufatinib accumulation ratio of AUC0-τ,[2]; 300 mg QD,2.1
same,AUC,"[2]; surufatinib 200 mg + toripalimab 240 mg, C1D1, N 4",1840 ng·h/mL
same,Cmax,[2]; [5],277 ng/mL
same,Tmax,[2]; [5],1.98 h
same,Vd/F,[2]; [6],926 L
same,half-life,[2]; [6],4.49 h
same,AUC,"[2]; surufatinib 200 mg + toripalimab 240 mg, C2D1, N 3",3010 ng·h/mL
same,Cmax,[2]; [7],268 ng/mL
same,Tmax,[2]; [7],2.97 h
same,half-life,"[2]; surufatinib 200 mg + toripalimab 240 mg, C2D1, footnote 4 (N 3)",13.1 h
same,AUC,"[2]; surufatinib 200 mg + toripalimab 240 mg, C3D1, N 2",2300 ng·h/mL
same,Cmax,[2]; [8],239 ng/mL
same,Tmax,[2]; [8],1.98 h
same,Vd/F,[2]; [9],1080 L
same,half-life,[2]; [9],10.1 h
same,AUC,[2]; [10],1840 ng·h/mL
same,Cmax,[2]; [10],289 ng/mL
same,Tmax,[2]; [10],1.6 h
same,Vd/F,[2]; [10],1660 L
same,half-life,[2]; [10],11.1 h
same,AUC,[2]; [11],3610 ng·h/mL
same,Cmax,[2]; [11],407 ng/mL
same,Tmax,[2]; [11],2 h
same,half-life,[2]; [11],11.9 h
same,AUC,"[2]; surufatinib 250 mg + toripalimab 240 mg, C3D1, N 8",2400 ng·h/mL
same,Cmax,[2]; [12],310 ng/mL
same,Tmax,[2]; [12],1.93 h
same,Vd/F,[2]; [13],2540 L
same,half-life,[2]; [13],15.6 h
same,AUC,"[2]; surufatinib 300 mg + toripalimab 240 mg, C1D1, N 10",1880 ng·h/mL
same,Cmax,[2]; [14],228 ng/mL
same,Tmax,[2]; [14],2 h
same,Vd/F,[2]; [15],1620 L
same,half-life,[2]; [15],8.12 h
same,AUC,"[2]; surufatinib 300 mg + toripalimab 240 mg, C2D1, N 9",3670 ng·h/mL
same,Cmax,[2]; [16],281 ng/mL
same,Tmax,[2]; [16],2.97 h
same,half-life,"[2]; surufatinib 300 mg + toripalimab 240 mg, C2D1, footnote 4 (N 8)",14.4 h
same,AUC,[2]; [17],3500 ng·h/mL
same,Cmax,[2]; [17],361 ng/mL
same,Tmax,[2]; [17],2 h
same,Vd/F,[2]; [17],1510 L
same,half-life,[2]; [17],12.2 h
same,"Surufatinib CL/F, geometric mean (CV%)",[2]; [6],89.5 (23.9) ^1 L/h
same,"Surufatinib CL/F, geometric mean (CV%)",[2]; [9],87.0 (24.3) ^3 L/h
same,"Surufatinib CL/F, geometric mean (CV%)",[2]; [10],110 (34.6) L/h
same,"Surufatinib CL/F, geometric mean (CV%)",[2]; [13],104 (45.0)^3 L/h
same,"Surufatinib CL/F, geometric mean (CV%)",[2]; [15],134 (30.7) ^1 L/h
same,"Surufatinib CL/F, geometric mean (CV%)",[2]; [17],84.3 (34.9) L/h
same,DCR,[3],86.5%
same,ORR,[3],10.3%
same,DCR,[4],80.8%
same,ORR,[4],19.2%
